{"source": "patent US20230165766A1", "about": "“DISPERSANT OR DISPERSION MEDIA COMPOSITION COMPRISING 2,3-BUTANEDIOL, AND COSMETIC COMPOSITION COMPRISING SAME” (GS CALTEX CORPORATION, priority 2020, published 2023)", "key": {"[1]": {"conditions": "cited from earlier work"}, "[2]": {"test": "Ceramide dispersion force evaluation (ceramide in polyol)", "assay_type": "physicochemical", "method": "(§1) Ceramide is an oil-soluble substance that is not soluble in water, precipitates easily during cosmetic production. It is difficult to stabilize ceramide due to gelling during the cosmetic production. In accordance with the present disclosure, the dispersion forces based on types of polyols were compared with each other using the characteristics of ceramide that precipitation thereof occurs well. The stability was evaluated at each of the room temperature, the refrigeration temperature, and the thermostat (45° C.)."}, "[3]": {"test": "Dispersibility of vitamin C in P/O emulsion under heating condition", "assay_type": "physicochemical", "conditions": "vitamin C-containing formulations", "method": "Vitamin C is a water-soluble substance that dissolves well in water. […] Therefore, in this experiment, vitamin C was applied to a polyol in oil (P/O) formulation as an anhydrous formulation, and an ivory-colored cream was prepared to evaluate dispersibility. It is more important to produce a stable cosmetic without discoloration, odor change, or phase separation rather than the problem of precipitation regarding vitamin C. Thus, factors for evaluating the dispersing power were set as soft spreadability, application uniformity, and emulsion stability. 1 part by weight of […] JC 500B, 1.5 parts by weight of ABIL EM 90, and 2 parts by weight of KF 6017 were added to 100 parts by weight of ELASTOMER BASE to produce an oil-based mixed solution 1. […] Further. 15 parts by weight of ascorbic acid ultra-fine powder was used to prepare a water-based mixed solution 2. Further, 45 parts by weight of KSG-16 was used to prepare an oil-based mixed solution 2. The oil-based mixed solution 1 was heated to 80 to 90° C. while stirring the same. […] The dispersion stability was evaluated as follows: unstable: phase separation between the oil phase and the aqueous phase, discoloration and/or odor change, normal: the oil phase being slightly separated, and stable: no oil phase separation."}, "[4]": {"test": "Ceramide dispersion force in solubilized essence formulation and O/W emulsion formulation", "assay_type": "physicochemical", "method": "Further, an experiment for evaluating the dispersion force of ceramide was performed by applying the same to each of the solubilized essence formulation and the O/W emulsion formulation."}, "[5]": {"test": "Dispersion force of allantoin in solubilized formulation", "assay_type": "physicochemical", "method": "0.02 parts by weight of EDTA-2Na, 2 parts by weight of 1,2-hexanediol, and 0.5 parts by weight of allantoin were added to 100 parts by weight of purified water to prepare a water-based mixed solution. On the other hand, 0.1 parts by weight of fragrance, 0.3 parts by weight of PEG-60 hydrogenated castor oil, 5 parts by weight of 95% ethanol and 10 parts by weight of the polyol of Present Example 2 were mixed with each other to prepare a solubilized mixed solution. That is, the water-based mixed solution is composed of ultrapure water, EDTA-2Na, 1,2-hexanediol and allantoin, while the solubilized mixed solution is composed of fragrance, PEG-60 hydrogenated castor oil, ethanol and polyol.\nThe water-based mixed solution was stirred at room temperature for 3 minutes. On the other hand, the solubilized mixed solution was stirred was heating the same to 45 to 50° C. to make the same transparent. Then, the solubilized mixed solution was slowly added to the water-based mixed solution to prepare a mixture which in turn was stirred at room temperature for 2 minutes.\nThe amount of precipitation of allantoin was measured as follows. […] Then, the precipitated portion was dried for 12 hours, and then a weight thereof was measured. Thus, the amount of precipitation was derived as a difference value between the measured weight and the previously measured weight of the empty container."}, "[6]": {"test": "Ceramide dispersion force in solubilized skin formulation", "assay_type": "physicochemical", "method": "as §1\n0.02 parts by weight of EDTA-2Na and 2 parts by weight of 1,2-hexanediol were added to 100 parts by weight of purified water to prepare a water-based mixed solution 1. On the other hand, 0.1 parts by weight of fragrance, 0.3 parts by weight of PEG-60 hydrogenated castor oil, and 5 parts by weight of DPG (Dipropylene Glycol) were mixed with each other to produce a solubilized mixed solution. Further, a water-based mixed solution 2 was prepared by mixing 10 parts by weight of polyol of Present Example 6 and 1 part by weight of ceramide with each other.\nThe water-based mixed solution 1 was stirred at room temperature for 2 minutes. On the other hand, the solubilized mixed solution was heated to 45 to 50° C. while stirring the same to make the same transparent, and then was slowly added to the water-based mixed solution under a stirring operation. […]"}, "[7]": {"test": "Allantoin dispersion force evaluation (precipitation amount in water)", "assay_type": "physicochemical", "description": "Precipitation of allantoin occurs well when the temperature is low. When allantoin is precipitated during cosmetic production, it is problematic. In accordance with the present disclosure, using the property of allantoin whose precipitation occurs well, the dispersion force was identified in a short time by measuring an amount of precipitation of allantoin based on each of the polyols under a severe refrigeration condition when the temperature is low, and then the dispersion forces of the various polyols were compared with each other. The stability was evaluated at each of a room temperature, a refrigeration temperature, and thermostat (45° C.). […] In this experiment, the dispersion force of allantoin, that is, the precipitation amount, and a precipitation rate thereof, based on each of the polyols was evaluated. […] The amount of precipitation of allantoin was measured as follows. […] After the 24 hours or 7 days, a supernatant was removed therefrom, and the resulting mixture was dried in a thermostat to entirely remove any remaining supernatant, leaving only the precipitated portion. Then, the precipitated portion was dried for 12 hours, and then a weight thereof was measured. Thus, the amount of precipitation was derived as a difference value between the measured weight and the previously measured weight of the empty container."}}}
{"smiles": "NC(=O)NC1NC(=O)NC1=O", "note": "(stereo not drawn) [allantoin]", "values": [{"measurement": "solubility of allantoin", "setting": "[1]", "value": 0.5, "unit": "g/100 mL"}]}
{"smiles": "C[C@H](O)[C@@H](C)O", "note": "[Present Example 5, (2R,3S)-2,3butanediol]", "values": [{"measurement": "ceramide dispersion force", "setting": "[2]; 1 part ceramide in 100 parts polyol", "value": "ceramide was stably dispersed"}, {"measurement": "state after 4 weeks in thermostat", "setting": "[2]; thermostat (45° C.), 4 weeks", "value": "excellent dispersing power"}]}
{"smiles": "C[C@H](O)[C@@H](C)O", "note": "[(2R,3S)-2,3-butanediol]", "values": [{"measurement": "difference between the properties under the heating/non-heating conditions", "setting": "[3]", "value": "no significant difference"}, {"measurement": "dispersion force of ceramide", "setting": "[4]", "value": "the dispersion force was excellent"}, {"measurement": "gelling phenomenon", "setting": "[4]", "value": "no gelling phenomenon was observed"}]}
{"smiles": "C[C@H](O)[C@@H](C)O", "note": "[Present Example 2, (2R,3S)-2,3butanediol]", "values": [{"measurement": "allantoin dispersion force in the solubilized formulation", "setting": "[5]", "value": "excellent"}]}
{"smiles": "C[C@H](O)[C@@H](C)O", "note": "[Present Example 6, (2R,3S)-2,3butanediol]", "values": [{"measurement": "ceramide dispersion force", "setting": "[6]", "value": "ceramide was stably dispersed"}]}
{"smiles": "C[C@H](O)[C@@H](C)O", "note": "[Present Example 1, (2R,3S)-2,3butanediol]", "values": [{"measurement": "dispersion force for allantoin", "setting": "[7]", "value": "excellent"}]}
